Measurements: ChEMBL document CHEMBL4507258 (2021)

What was measured:
[1] = target: Tyrosine-protein kinase ABL1 (Homo sapiens) (UniProt P00519); conditions: Compound concentration 1000.0 nM
[2] = target: Alpha-1D adrenergic receptor (Homo sapiens) (UniProt P25100); conditions: Compound concentration 10.0 uM
[3] = target: Mitogen-activated protein kinase 13 (Homo sapiens) (UniProt O15264); conditions: Compound concentration 1000.0 nM
[4] = system: ALK tyrosine kinase receptor (Homo sapiens), Q9UM73 [L1196M]; conditions: Compound concentration 1000.0 nM
[5] = system: Epidermal growth factor receptor (Homo sapiens), P00533 [G719C]; conditions: Compound concentration 1000.0 nM
[6] = target: D(2) dopamine receptor (Homo sapiens) (UniProt P14416); conditions: Compound concentration 10.0 uM
[7] = target: Serine/threonine-protein kinase mTOR (Homo sapiens) (UniProt P42345); conditions: Compound concentration 1000.0 nM
[8] = target: Ribosomal protein S6 kinase alpha-1 (Homo sapiens) (UniProt Q15418); conditions: Compound concentration 1000.0 nM
[9] = target: Tyrosine-protein kinase SYK (Homo sapiens) (UniProt P43405); conditions: Compound concentration 1000.0 nM
[10] = target: Myosin light chain kinase family member 4 (Homo sapiens) (UniProt Q86YV6); conditions: Compound concentration 1000.0 nM
[11] = target: Non-receptor tyrosine-protein kinase TYK2 (Homo sapiens) (UniProt P29597); conditions: Compound concentration 1000.0 nM
[12] = target: Mitogen-activated protein kinase kinase kinase kinase 2 (Homo sapiens) (UniProt Q12851); conditions: Compound concentration 1000.0 nM
[13] = target: Serine/threonine-protein kinase pim-2 (Homo sapiens) (UniProt Q9P1W9); conditions: Compound concentration 1000.0 nM
[14] = target: Serine/threonine-protein kinase PLK3 (Homo sapiens) (UniProt Q9H4B4); conditions: Compound concentration 1000.0 nM
[15] = target: Protein kinase C delta type (Homo sapiens) (UniProt Q05655); conditions: Compound concentration 1000.0 nM
[16] = target: Serine/threonine-protein kinase SIK1 (Homo sapiens, UniProt P57059); conditions: Compound concentration 1000.0 nM
[17] = target: Platelet-derived growth factor receptor beta (Homo sapiens) (UniProt P09619); conditions: Compound concentration 1000.0 nM
[18] = target: Testis-specific serine/threonine-protein kinase 3 (Homo sapiens) (UniProt Q96PN8); conditions: Compound concentration 1000.0 nM
[19] = target: Ribosomal protein S6 kinase alpha-5 (Homo sapiens) (UniProt O75582); conditions: Compound concentration 1000.0 nM
[20] = target: Tyrosine-protein kinase JAK2 (Homo sapiens) (UniProt O60674); conditions: Compound concentration 1000.0 nM
[21] = system: Proto-oncogene tyrosine-protein kinase receptor Ret (Homo sapiens), P07949 [V804L]; conditions: Compound concentration 1000.0 nM
[22] = target: Macrophage colony-stimulating factor 1 receptor (Homo sapiens) (UniProt P07333); conditions: Compound concentration 1000.0 nM
[23] = target: Serine/threonine-protein kinase 33 (Homo sapiens) (UniProt Q9BYT3); conditions: Compound concentration 1000.0 nM
[24] = target: Tyrosine-protein kinase Tec (Homo sapiens) (UniProt P42680); conditions: Compound concentration 1000.0 nM
[25] = target: Mitogen-activated protein kinase kinase kinase 11 (Homo sapiens) (UniProt Q16584); conditions: Compound concentration 1000.0 nM
[26] = target: Serine/threonine-protein kinase PknB (Mycobacterium tuberculosis) (UniProt P9WI81); conditions: Compound concentration 1000.0 nM
[27] = target: Casein kinase II subunit alpha' (Homo sapiens) (UniProt P19784); conditions: Compound concentration 1000.0 nM
[28] = target: Mitogen-activated protein kinase kinase kinase 6 (Homo sapiens) (UniProt O95382); conditions: Compound concentration 1000.0 nM
[29] = target: Sigma intracellular receptor 2 (Homo sapiens) (UniProt Q5BJF2); conditions: Compound concentration 10.0 uM
[30] = target: High affinity nerve growth factor receptor (Homo sapiens) (UniProt P04629); conditions: Compound concentration 1000.0 nM
[31] = target: Adenosine receptor A3 (Homo sapiens) (UniProt P0DMS8); assay: Adenosine A 3 receptor (h) CEREP ligand profiling; conditions: Compound concentration 10.0 uM
[32] = target: Translocator protein (Rattus norvegicus) (UniProt P16257); assay: Benzodiazepine (peripheral) CEREP ligand profiling; conditions: Compound concentration 10.0 uM
[33] = target: Sodium channel (site 2) (Homo sapiens, UniProt P35498+P35499+Q01118+Q14524+Q15858+Q99250+Q9NY46+Q9UI33+Q9UQD0+Q9Y5Y9); assay: Na+ channel (site 2) CEREP ligand profiling; assay type: protein assay; conditions: compound concentration 10 uM
[34] = target: Vasopressin V2 receptor (Homo sapiens) (UniProt P30518); assay: Vasopresine V2 receptor CEREP ligand profiling; conditions: Compound concentration 10.0 uM
[35] = target: Galanin receptor (Homo sapiens) (UniProt O60755+O43603+P47211); assay: Galanin receptor (h) CEREP ligand profiling; assay type: protein assay; conditions: Compound concentration 10.0 uM
[36] = target: Substance-K receptor (Homo sapiens) (UniProt P21452); assay: Neurokinin A receptor (h) CEREP ligand profiling; conditions: Compound concentration 10.0 uM
[37] = target: Histamine H1 receptor (Homo sapiens, UniProt P35367); assay: Histamine H1 receptor (central) CEREP ligand profiling; conditions: Compound concentration 10.0 uM
[38] = target: Voltage-gated (volt-dependent) potassium channel (Homo sapiens, UniProt O43525+O43526+O95259+P16389+P17658+P22001+P22459+P22460+P48547+P51787+P56696+Q03721+Q09470+Q12809+Q14003+Q14721+Q16322+Q6PIU1+Q8NCM2+Q8TAE7+Q8TDN1+Q8TDN2+Q92953+Q96KK3+Q96L42+Q96PR1+Q96RP8+Q9BQ31+Q9H252+Q9H3M0+Q9NR82+Q9NS40+Q9NSA2+Q9NZV8+Q9UIX4+Q9UJ96+Q9UK17+Q9ULD8+Q9ULS6+Q9UQ05); assay: K+ channel (volt-dependent) CEREP ligand profiling; assay type: protein assay; conditions: compound concentration 10 uM
[39] = target: D(3) dopamine receptor (Homo sapiens) (UniProt P35462); assay: Dopamine D3 receptor (h) CEREP ligand profiling; conditions: Compound concentration 10.0 uM
[40] = target: 5-hydroxytryptamine receptor 1B (Homo sapiens) (UniProt P28222); assay: 5-Hydroxytryptamine1B CEREP ligand profiling; conditions: Compound concentration 10.0 uM
[41] = target: Voltage-gated L-type calcium channel (verapamil site) (Homo sapiens, UniProt O60840+Q01668+Q13698+Q13936); assay: Ca2+ channel (L, verapamil site) CEREP ligand profiling; assay type: protein assay; conditions: compound concentration 10 uM

Chain of Proto-oncogene tyrosine-protein kinase receptor Ret (Homo sapiens), P07949 [V804L] (P07949 whole entry V804L): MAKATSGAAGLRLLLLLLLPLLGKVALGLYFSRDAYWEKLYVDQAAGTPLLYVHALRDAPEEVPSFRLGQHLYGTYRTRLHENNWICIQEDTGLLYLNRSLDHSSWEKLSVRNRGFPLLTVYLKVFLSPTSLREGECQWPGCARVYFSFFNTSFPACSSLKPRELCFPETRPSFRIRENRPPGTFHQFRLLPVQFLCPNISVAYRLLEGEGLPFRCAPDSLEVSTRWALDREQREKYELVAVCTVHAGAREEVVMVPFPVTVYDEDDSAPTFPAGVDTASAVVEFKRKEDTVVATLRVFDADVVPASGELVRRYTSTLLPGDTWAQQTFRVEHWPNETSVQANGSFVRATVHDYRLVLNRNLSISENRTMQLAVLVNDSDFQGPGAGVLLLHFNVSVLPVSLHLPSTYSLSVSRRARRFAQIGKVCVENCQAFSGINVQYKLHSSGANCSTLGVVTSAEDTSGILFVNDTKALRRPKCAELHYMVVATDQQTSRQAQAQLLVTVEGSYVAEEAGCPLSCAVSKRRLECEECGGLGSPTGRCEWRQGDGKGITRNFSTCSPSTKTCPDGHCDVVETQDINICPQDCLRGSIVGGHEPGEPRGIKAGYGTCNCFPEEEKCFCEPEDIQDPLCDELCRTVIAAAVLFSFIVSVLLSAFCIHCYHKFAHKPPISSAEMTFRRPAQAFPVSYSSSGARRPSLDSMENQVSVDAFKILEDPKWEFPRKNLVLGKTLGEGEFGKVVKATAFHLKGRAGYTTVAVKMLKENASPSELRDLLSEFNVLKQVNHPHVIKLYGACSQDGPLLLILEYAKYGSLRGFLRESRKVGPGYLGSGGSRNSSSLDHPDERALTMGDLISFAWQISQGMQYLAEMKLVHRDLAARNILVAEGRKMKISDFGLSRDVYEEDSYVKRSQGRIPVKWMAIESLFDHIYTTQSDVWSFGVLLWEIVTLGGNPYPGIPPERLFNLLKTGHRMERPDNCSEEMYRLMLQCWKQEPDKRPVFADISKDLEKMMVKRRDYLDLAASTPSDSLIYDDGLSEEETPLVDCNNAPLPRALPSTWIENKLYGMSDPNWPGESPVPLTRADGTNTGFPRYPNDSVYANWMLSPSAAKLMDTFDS
Chain of Mitogen-activated protein kinase kinase kinase kinase 2 (Homo sapiens) (Q12851 whole entry): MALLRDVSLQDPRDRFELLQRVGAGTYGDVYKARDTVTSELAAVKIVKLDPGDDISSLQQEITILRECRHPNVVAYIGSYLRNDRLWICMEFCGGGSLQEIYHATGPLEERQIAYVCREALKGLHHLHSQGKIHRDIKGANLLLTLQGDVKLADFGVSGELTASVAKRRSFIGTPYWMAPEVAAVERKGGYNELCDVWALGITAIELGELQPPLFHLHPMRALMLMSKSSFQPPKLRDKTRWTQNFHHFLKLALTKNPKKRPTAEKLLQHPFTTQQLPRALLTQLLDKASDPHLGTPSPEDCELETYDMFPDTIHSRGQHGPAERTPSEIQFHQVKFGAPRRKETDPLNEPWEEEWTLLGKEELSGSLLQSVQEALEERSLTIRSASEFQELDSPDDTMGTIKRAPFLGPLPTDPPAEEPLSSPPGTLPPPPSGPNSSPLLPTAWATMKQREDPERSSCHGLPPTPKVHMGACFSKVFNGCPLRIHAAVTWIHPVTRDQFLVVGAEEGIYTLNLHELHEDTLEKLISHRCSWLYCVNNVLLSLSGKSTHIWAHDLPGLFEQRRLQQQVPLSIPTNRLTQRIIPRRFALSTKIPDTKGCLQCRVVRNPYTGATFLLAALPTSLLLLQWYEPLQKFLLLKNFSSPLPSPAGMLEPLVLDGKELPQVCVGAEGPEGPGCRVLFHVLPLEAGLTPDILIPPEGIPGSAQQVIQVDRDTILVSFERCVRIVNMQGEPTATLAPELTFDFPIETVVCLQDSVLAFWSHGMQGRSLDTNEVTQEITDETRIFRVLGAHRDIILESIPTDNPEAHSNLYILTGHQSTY
Chain of Serine/threonine-protein kinase pim-2 (Homo sapiens) (Q9P1W9 whole entry, looked up): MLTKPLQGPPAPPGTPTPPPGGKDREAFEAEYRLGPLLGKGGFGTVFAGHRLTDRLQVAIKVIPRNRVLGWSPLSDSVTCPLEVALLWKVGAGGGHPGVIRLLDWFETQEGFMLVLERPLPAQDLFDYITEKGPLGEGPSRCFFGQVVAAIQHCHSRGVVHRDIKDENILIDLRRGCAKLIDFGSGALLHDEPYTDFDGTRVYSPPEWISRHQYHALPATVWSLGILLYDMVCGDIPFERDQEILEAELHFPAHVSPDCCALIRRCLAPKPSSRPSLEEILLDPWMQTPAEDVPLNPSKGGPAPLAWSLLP
Chain of Serine/threonine-protein kinase PknB (Mycobacterium tuberculosis) (P9WI81 whole entry): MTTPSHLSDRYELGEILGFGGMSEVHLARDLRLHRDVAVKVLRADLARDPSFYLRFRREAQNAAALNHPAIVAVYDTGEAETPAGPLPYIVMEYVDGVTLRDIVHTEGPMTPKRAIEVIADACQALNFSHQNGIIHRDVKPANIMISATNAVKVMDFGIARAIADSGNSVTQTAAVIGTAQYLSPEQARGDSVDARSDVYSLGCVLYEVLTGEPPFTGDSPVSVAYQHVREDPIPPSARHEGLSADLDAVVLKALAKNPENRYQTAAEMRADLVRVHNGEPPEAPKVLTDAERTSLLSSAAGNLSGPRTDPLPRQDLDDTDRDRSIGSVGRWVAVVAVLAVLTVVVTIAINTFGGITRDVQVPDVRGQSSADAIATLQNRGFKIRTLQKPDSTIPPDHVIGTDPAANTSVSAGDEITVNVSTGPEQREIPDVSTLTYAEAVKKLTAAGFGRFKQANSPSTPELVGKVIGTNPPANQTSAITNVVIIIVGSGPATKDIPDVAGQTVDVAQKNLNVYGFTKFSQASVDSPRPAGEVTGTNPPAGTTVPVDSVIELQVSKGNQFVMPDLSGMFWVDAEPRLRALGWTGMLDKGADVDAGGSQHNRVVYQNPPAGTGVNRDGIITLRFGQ
Chain of ALK tyrosine kinase receptor (Homo sapiens), Q9UM73 [L1196M] (Q9UM73 whole entry L1196M, looked up): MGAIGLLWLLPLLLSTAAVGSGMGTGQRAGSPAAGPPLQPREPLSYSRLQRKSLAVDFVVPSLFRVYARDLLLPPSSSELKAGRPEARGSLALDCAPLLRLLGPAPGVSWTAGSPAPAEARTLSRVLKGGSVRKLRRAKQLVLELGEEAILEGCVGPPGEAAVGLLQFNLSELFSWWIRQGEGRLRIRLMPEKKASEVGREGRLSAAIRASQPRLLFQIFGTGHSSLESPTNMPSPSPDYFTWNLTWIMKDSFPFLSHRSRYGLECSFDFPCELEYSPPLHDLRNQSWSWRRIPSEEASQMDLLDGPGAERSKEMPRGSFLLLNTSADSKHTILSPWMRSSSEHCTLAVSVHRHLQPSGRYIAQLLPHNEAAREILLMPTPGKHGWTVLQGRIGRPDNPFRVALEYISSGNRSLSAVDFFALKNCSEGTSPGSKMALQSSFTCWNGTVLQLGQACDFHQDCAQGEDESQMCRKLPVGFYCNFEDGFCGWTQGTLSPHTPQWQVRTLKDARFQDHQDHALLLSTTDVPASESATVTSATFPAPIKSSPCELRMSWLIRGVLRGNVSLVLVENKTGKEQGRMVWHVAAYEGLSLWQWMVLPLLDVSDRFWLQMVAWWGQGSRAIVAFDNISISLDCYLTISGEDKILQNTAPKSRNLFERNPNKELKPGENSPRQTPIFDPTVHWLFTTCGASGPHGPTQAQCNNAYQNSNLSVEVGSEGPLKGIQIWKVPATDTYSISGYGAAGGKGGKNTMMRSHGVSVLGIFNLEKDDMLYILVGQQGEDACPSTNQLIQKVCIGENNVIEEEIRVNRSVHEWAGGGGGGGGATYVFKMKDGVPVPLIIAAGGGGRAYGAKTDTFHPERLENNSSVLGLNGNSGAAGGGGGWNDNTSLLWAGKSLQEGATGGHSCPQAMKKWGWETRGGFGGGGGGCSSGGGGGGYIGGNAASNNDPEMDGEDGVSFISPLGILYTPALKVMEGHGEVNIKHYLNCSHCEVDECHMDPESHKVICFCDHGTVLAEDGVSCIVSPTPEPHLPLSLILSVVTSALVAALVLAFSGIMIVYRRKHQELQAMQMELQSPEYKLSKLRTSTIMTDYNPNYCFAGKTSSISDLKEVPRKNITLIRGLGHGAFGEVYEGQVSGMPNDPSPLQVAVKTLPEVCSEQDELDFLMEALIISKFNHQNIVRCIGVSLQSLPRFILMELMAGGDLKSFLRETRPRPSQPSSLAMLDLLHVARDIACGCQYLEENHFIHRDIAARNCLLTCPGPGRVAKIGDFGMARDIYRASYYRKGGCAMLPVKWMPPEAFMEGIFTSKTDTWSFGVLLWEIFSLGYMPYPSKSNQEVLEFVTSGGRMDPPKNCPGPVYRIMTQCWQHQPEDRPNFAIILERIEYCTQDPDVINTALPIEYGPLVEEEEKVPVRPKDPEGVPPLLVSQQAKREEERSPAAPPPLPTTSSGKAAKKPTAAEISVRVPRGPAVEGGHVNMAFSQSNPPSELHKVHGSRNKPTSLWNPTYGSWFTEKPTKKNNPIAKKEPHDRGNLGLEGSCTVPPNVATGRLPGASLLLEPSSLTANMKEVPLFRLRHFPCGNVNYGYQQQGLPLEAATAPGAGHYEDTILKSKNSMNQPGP
Chain of D(2) dopamine receptor (Homo sapiens) (P14416 whole entry): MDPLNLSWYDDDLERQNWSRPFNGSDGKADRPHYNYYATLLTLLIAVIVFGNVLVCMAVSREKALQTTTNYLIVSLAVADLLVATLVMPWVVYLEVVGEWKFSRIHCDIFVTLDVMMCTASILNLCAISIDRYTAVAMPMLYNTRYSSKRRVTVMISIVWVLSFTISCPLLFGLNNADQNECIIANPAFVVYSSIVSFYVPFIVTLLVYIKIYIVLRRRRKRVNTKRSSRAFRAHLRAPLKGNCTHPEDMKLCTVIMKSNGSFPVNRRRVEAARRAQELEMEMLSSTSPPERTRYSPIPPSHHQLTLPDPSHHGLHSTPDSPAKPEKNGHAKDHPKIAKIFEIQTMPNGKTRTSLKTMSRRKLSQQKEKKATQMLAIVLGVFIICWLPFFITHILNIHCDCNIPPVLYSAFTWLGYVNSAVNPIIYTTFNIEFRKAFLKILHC

| SMILES | residual activity [1] | residual activity [3] | residual activity [4] | residual activity [5] | inhibition [6] | residual activity [7] | residual activity [8] | residual activity [9] | residual activity [10] | residual activity [11] | residual activity [12] | residual activity [13] | residual activity [14] | residual activity [15] | residual activity [16] | residual activity [17] | residual activity [18] | residual activity [19] | residual activity [20] | residual activity [21] | other results |
| --- | --- | --- | --- | --- | --- | --- | --- | --- | --- | --- | --- | --- | --- | --- | --- | --- | --- | --- | --- | --- | --- |
| CCCCN(CCCC)C(=O)CN1C[C@@H](c2cc(OC)c3c(c2)OCO3)[C@H](C(=O)O)[C@H]1CC(C)(C)CCC [A-545] | 100% | 100% | 100% | 100% | 21.3% | 100% | 91.3% | 100% | 100% | 95.8% | 100% | 96.3% | 93.5% | 98.2% | 100% | 99% | 100% | 74.4% | 91% | 100% | inhibition [2]: 6.55%; residual activity [22]: 100%; residual activity [23]: 100%; residual activity [24]: 100%; residual activity [25]: 100%; residual activity [26]: 92.8%; residual activity [27]: 77.1%; residual activity [28]: 100%; inhibition [29]: 41.3%; residual activity [30]: 86.7% |
| CCCCN(CCCC)C(=O)CN1C[C@H](c2cc(OC)c3c(c2)OCO3)[C@@H](C(=O)O)[C@@H]1CC(C)(C)CCC [ABT-546] | 79.8% | 100% | 100% | 95.4% | 21.3% | 100% | 97.7% | 100% | 99.1% | 85.9% | 54.4% | 100% | 90.6% | 100% | 100% | 100% | 100% | 100% | 100% | 100% | inhibition [31]: 32%; inhibition [32]: < 10%; inhibition at 10 µM [33]: < 10% (not active); inhibition [34]: < 10%; inhibition [35]: < 10%; inhibition [36]: < 10%; inhibition [37]: < 10%; inhibition at 10 µM [38]: < 10% (not active); inhibition [39]: < 10%; residual activity [22]: 43%; residual activity [23]: 100%; residual activity [24]: 100%; residual activity [25]: 100%; inhibition [40]: < 10%; residual activity [26]: 85%; residual activity [27]: 98.4%; residual activity [28]: 81.7%; inhibition at 10 µM [41]: 29% (not active); inhibition [29]: 48.5%; residual activity [30]: 61.2% |
